According to ChEMBL document CHEMBL1201862, “PubChem BioAssay data set” (2004):
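Values below derive from 48-hour exposures of cells grown in 96-well plates, with endpoints linearly interpolated between the two concentrations bracketing the appropriate inhibition level. GI50: concentration for 50% inhibition of growth.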 Calls of active or inactive are those of the source. No stated cut-off is given here; in the data, active = GI50 up to about 1.1 µM and inactive = higher.

Tests used:
Assay in all cases: NCI anticancer screen, dose series, 48 h
786-0 = system: 786-0
A498 = system: A498
A549 = system: A549
ACHN = system: ACHN
BT-549 = system: BT-549
CCRF-CEM = system: CCRF-CEM
COLO 205 = system: COLO 205
DU-145 = system: DU-145
EKVX = system: EKVX
HCC 2998 = system: HCC 2998
HCT-116 = system: HCT-116
HCT-15 = system: HCT-15
HL-60 = system: HL-60
HOP-62 = system: HOP-62
HOP-92 = system: HOP-92
HT-29 = system: HT-29
Hs-578T = system: Hs-578T
IGROV-1 = system: IGROV-1
K562 = system: K562
KM12 = system: KM12
LOX IMVI = system: LOX IMVI
M14 = system: M14
MCF7 = system: MCF7
MDA-MB-231 = system: MDA-MB-231
MDA-MB-435 = system: MDA-MB-435
MDA-N = system: MDA-N
MOLT-4 = system: MOLT-4
Malme-3M = system: Malme-3M
NCI-H226 = system: NCI-H226
NCI-H23 = system: NCI-H23
NCI-H460 = system: NCI-H460
NCI-H522 = system: NCI-H522
NCI/ADR-RES = system: NCI/ADR-RES
OVCAR-3 = system: OVCAR-3
OVCAR-4 = system: OVCAR-4
OVCAR-5 = system: OVCAR-5
OVCAR-8 = system: OVCAR-8
PC-3 = system: PC-3
RPMI-8226 = system: RPMI-8226
RXF 393 = system: RXF 393
SF-268 = system: SF-268
SF-295 = system: SF-295
SF-539 = system: SF-539
SK-MEL-28 = system: SK-MEL-28
SK-MEL-2 = system: SK-MEL-2
SK-MEL-5 = system: SK-MEL-5
SK-OV-3 = system: SK-OV-3
SN12C = system: SN12C
SNB-19 = system: SNB-19
SNB-75 = system: SNB-75
SR = system: SR
SW-620 = system: SW-620
T47D = system: T47D
TK-10 = system: TK-10
U-251 = system: U-251
UACC-257 = system: UACC-257
UACC-62 = system: UACC-62
UO-31 = system: UO-31
CAKI-1 = system: CAKI-1

COc1cc(/C=N/N=C2NCCCN2)ccc1O
GI50 (786-0): > 100 µM (inactive)
GI50 (A498): > 100 µM (inactive)
GI50 (A549): > 100 µM (inactive)
GI50 (ACHN): > 100 µM (inactive)
GI50 (BT-549): > 100 µM (inactive)
GI50 (CCRF-CEM): > 100 µM (inactive)
GI50 (COLO 205): > 100 µM (inactive)
GI50 (DU-145): > 100 µM (inactive)
GI50 (EKVX): > 100 µM (inactive)
GI50 (HCC 2998): > 100 µM (inactive)
GI50 (HCT-116): > 100 µM (inactive)
GI50 (HCT-15): > 100 µM
GI50 (HL-60): > 100 µM (inactive)
GI50 (HOP-62): > 100 µM (inactive)
GI50 (HOP-92): > 100 µM (inactive)
GI50 (HT-29): > 100 µM (inactive)
GI50 (Hs-578T): > 100 µM (inactive)
GI50 (IGROV-1): > 100 µM (inactive)
GI50 (K562): > 100 µM (inactive)
GI50 (KM12): > 100 µM (inactive)
GI50 (LOX IMVI): > 100 µM (inactive)
GI50 (M14): > 100 µM (inactive)
GI50 (MCF7): > 100 µM (inactive)
GI50 (MDA-MB-231): > 100 µM (inactive)
GI50 (MDA-MB-435): > 100 µM (inactive)
GI50 (MDA-N): > 100 µM (inactive)
GI50 (MOLT-4): > 100 µM (inactive)
GI50 (Malme-3M): 95.7 µM (inactive)
GI50 (NCI-H226): > 100 µM (inactive)
GI50 (NCI-H23): > 100 µM (inactive)
GI50 (NCI-H460): 82.8 µM (inactive)
GI50 (NCI-H522): > 100 µM (inactive)
GI50 (NCI/ADR-RES): > 100 µM (inactive)
GI50 (OVCAR-3): > 100 µM (inactive)
GI50 (OVCAR-4): > 100 µM (inactive)
GI50 (OVCAR-5): > 100 µM (inactive)
GI50 (OVCAR-8): > 100 µM (inactive)
GI50 (PC-3): > 100 µM (inactive)
GI50 (RPMI-8226): > 100 µM (inactive)
GI50 (RXF 393): > 100 µM (inactive)
GI50 (SF-268): > 100 µM (inactive)
GI50 (SF-295): > 100 µM (inactive)
GI50 (SF-539): > 100 µM (inactive)
GI50 (SK-MEL-28): > 100 µM (inactive)
GI50 (SK-MEL-2): > 100 µM (inactive)
GI50 (SK-MEL-5): > 100 µM (inactive)
GI50 (SK-OV-3): > 100 µM (inactive)
GI50 (SN12C): > 100 µM (inactive)
GI50 (SNB-19): > 100 µM (inactive)
GI50 (SNB-75): 30.3 µM (inactive)
GI50 (SR): > 100 µM (inactive)
GI50 (SW-620): > 100 µM (inactive)
GI50 (T47D): > 100 µM (inactive)
GI50 (TK-10): > 100 µM (inactive)
GI50 (U-251): > 100 µM (inactive)
GI50 (UACC-257): > 100 µM (inactive)
GI50 (UACC-62): > 100 µM (inactive)
GI50 (UO-31): > 100 µM (inactive)

O=C(CSc1nc2ccc(I)cc2c(=O)n1Cc1ccccc1)NN1C(=O)c2ccccc2C1=O
GI50 (786-0): 6.04 µM (inactive)
GI50 (A498): 14.8 µM (inactive)
GI50 (A549): 18 µM (inactive)
GI50 (ACHN): 18.9 µM (inactive)
GI50 (BT-549): 15.4 µM (inactive)
GI50 (CAKI-1): 9.23 µM (inactive)
GI50 (COLO 205): 25.5 µM (inactive)
GI50 (DU-145): 25.4 µM (inactive)
GI50 (EKVX): 12.9 µM (inactive)
GI50 (HCC 2998): 28.8 µM (inactive)
GI50 (HCT-116): 16.7 µM (inactive)
GI50 (HCT-15): 30.1 µM
GI50 (HL-60): 16.7 µM (inactive)
GI50 (HOP-62): 4.75 µM (inactive)
GI50 (HOP-92): 14.4 µM (inactive)
GI50 (HT-29): 24.8 µM (inactive)
GI50 (Hs-578T): 6.47 µM (inactive)
GI50 (IGROV-1): 19.3 µM (inactive)
GI50 (K562): 31 µM (inactive)
GI50 (KM12): 31.2 µM (inactive)
GI50 (LOX IMVI): 15 µM (inactive)
GI50 (M14): 28.5 µM (inactive)
GI50 (MCF7): 23.3 µM (inactive)
GI50 (MDA-MB-231): 11.2 µM (inactive)
GI50 (MDA-MB-435): 34.4 µM (inactive)
GI50 (MDA-N): 37.3 µM (inactive)
GI50 (MOLT-4): 28.4 µM (inactive)
GI50 (Malme-3M): 18.2 µM (inactive)
GI50 (NCI-H226): 6.3 µM (inactive)
GI50 (NCI-H23): 18.2 µM (inactive)
GI50 (NCI-H460): 22.9 µM (inactive)
GI50 (NCI-H522): 14.9 µM (inactive)
GI50 (NCI/ADR-RES): 15.5 µM (inactive)
GI50 (OVCAR-3): 11.6 µM (inactive)
GI50 (OVCAR-4): 12.2 µM (inactive)
GI50 (OVCAR-5): 26.2 µM (inactive)
GI50 (OVCAR-8): 11.8 µM (inactive)
GI50 (PC-3): 4.09 µM (inactive)
GI50 (RPMI-8226): 33.3 µM (inactive)
GI50 (RXF 393): 8.3 µM (inactive)
GI50 (SF-268): 8.85 µM (inactive)
GI50 (SF-295): 10.6 µM (inactive)
GI50 (SF-539): 3.42 µM (inactive)
GI50 (SK-MEL-28): 17.9 µM (inactive)
GI50 (SK-MEL-2): 10.8 µM (inactive)
GI50 (SK-MEL-5): 18.1 µM (inactive)
GI50 (SK-OV-3): 11.6 µM (inactive)
GI50 (SN12C): 18.8 µM (inactive)
GI50 (SNB-19): 16.5 µM (inactive)
GI50 (SNB-75): 4.3 µM (inactive)
GI50 (SR): 25.7 µM (inactive)
GI50 (SW-620): 27.5 µM (inactive)
GI50 (T47D): 15.8 µM (inactive)
GI50 (TK-10): 13.7 µM (inactive)
GI50 (U-251): 12.7 µM (inactive)
GI50 (UACC-257): 17.5 µM (inactive)
GI50 (UACC-62): 24.9 µM (inactive)
GI50 (UO-31): 2.37 µM (inactive)
